From publication PMC12221113, “Deferasirox Derivatives as Inhibitors of Kallikrein‐Related Peptidases Associated to Neurodegenerative Diseases” (Chemmedchem, 2025)
Read-outs that look alike come from different tables or passages of the source.

How the values were obtained:
[1] = biological target: KLK6 (Homo sapiens, UniProt Q92876); assay: KLK6 fluorogenic enzyme inhibition assay (Boc-QAR-AMC)
Protocol: (§1) All enzyme stocks were stored at −20 °C and purchased from R&D Systems as proenzymes (KLK6, KLK8, KLK13) or as mature and active forms (KLK5). Activation of KLK6, KLK8, and KLK13 is performed in optimized buffers. The activation reaction is initiated by Lysyl‐Endopeptidase at 2.5 mU mL^−1 (Wako Bioproducts). The activation reaction is stopped by diluting the enzyme to 0.5 μg mL^−1 in assay buffer (50 mM Tris, 1 M Citrate, 0.05% w/v Brij‐35, pH 8) to obtain an active enzyme stock. KLK1 was purchased from R & D Systems as pro‐KLK1. Activation of KLK1 is performed in 50 mM Tris‐HCl, 10 mM CaCl2, 150 mM NaCl, 0.05% Brij‐35, pH 7.5. The activation reaction is initiated by bacterial thermolysin at 0.4 μg mL^−1 (Sigma‐Aldrich) and stopped by addition of 100 mM EDTA (Sigma‐Aldrich) to obtain an active KLK1 stock at the same concentration of 100 μg mL^−1. […] All enzyme stocks were stored at −20 °C. H‐PFR‐AMC (KLK1), Boc‐VPR‐AMC (KLK5, KLK8, KLK13), Boc‐QAR‐AMC (KLK6, Plasmin), substrates were purchased from Bachem. […] Plasmin (Sigma‐Aldrich) was purchased in mature and active form.
(§2) Compounds were screened on KLKs using a BMG Fluostar microplate reader (black 96‐well microplates). Hit compounds were screened on the selected group of enzymes using optimized concentrations and buffers (KLK1 0.8 nM, KLK4 10 nM, KLK5 0.2 nM; KLK6 1.9 nM; KLK7 6 nM; KLK8 0.2 nM; KLK11 5.2 nM, KLK13 0.47 nM, KLK14 2.5 nM, plasmin 3.3 nM, thrombin 0.1 nM, tissue‐plasminogen activator (tPA) 0.1 nM, matriptase 1 nM, cathepsin L 2 nM) either in absence or prior preincubation in the presence of 100 μM of Fe^3+.
(§3) The proteases are first preincubated for 15 min with each compound (50 and 100 μM) or with DMSO (<2%, negative control) in a total volume of 85 μL of 50 mM Tris buffer, 1 M citrate, 0.05% Brij‐35, pH 7, 37 °C. The reaction is triggered by the appropriate substrate at the optimized concentration in 15 μL of 50 mM Tris buffer, 1 M citrate, 0.05% Brij‐35, pH 8 (H‐PFR‐AMC 100 μM; Boc‐VPR‐AMC 100 μM; Boc‐QAR‐AMC 100 μM; Meo‐Suc‐RPY‐AMC 150 μM, Z‐LR‐AMC 100 μM, Z‐GGR‐AMC 100 μM) and followed for 30 min at 37 °C. […] The release of the AMC fluorescent group is detected using the following wavelengths: λex = 360 nm and λem = 460 nm. The percent inhibition is calculated from Equation (1) where V 0 is the initial rate of the DMSO control, the initial rate in the presence of the inhibitor V i. (1) %inhibition=(1−(vi/v0))×100
(§4) The equation is entered in the Kaleidagraph 4.5 software for curve fitting f([I]) = % Inhibition, where [I] is the inhibitor concentration.
(§5) The mechanism of inhibition was determined by varying substrate and inhibitor concentrations, the type of inhibition and inhibition parameter (Ki or Ki′) are determined by Dixon's plots.

[2] = biological target: T1, KLK8 (Homo sapiens, UniProt O60259); assay: KLK8 fluorogenic enzyme inhibition assay (Boc-VPR-AMC)
T1 sequence (O60259 33-260): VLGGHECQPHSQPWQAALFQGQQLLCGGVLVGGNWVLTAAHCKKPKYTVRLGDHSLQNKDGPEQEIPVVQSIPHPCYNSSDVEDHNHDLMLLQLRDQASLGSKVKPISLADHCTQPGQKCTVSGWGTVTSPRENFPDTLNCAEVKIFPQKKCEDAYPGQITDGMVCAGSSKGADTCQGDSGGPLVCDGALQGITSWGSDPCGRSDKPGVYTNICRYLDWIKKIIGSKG
Protocol: as §1, §2, §3, §4, §5

[3] = biological target: KLK1 (Homo sapiens, UniProt P06870); assay: KLK1 fluorogenic enzyme inhibition assay (H-PFR-AMC)
Protocol: as §1, §2, §3, §4, §5

[4] = biological target: T2, KLK13 (Homo sapiens, UniProt Q9UKR3); assay: Selectivity screening, KLK13; conditions: read-out: percentage of inhibition KLK13
T2 sequence (Q9UKR3 26-277 limits assumed): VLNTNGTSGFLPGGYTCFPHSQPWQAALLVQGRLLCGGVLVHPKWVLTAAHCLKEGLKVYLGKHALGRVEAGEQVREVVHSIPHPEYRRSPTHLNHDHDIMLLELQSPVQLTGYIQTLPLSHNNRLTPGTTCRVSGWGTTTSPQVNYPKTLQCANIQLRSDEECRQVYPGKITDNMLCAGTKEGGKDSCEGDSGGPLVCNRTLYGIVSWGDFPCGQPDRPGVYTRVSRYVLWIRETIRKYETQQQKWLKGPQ
Protocol: (§6) All enzyme stocks were stored at −20 °C and purchased from R&D Systems as proenzymes (KLK6, KLK8, KLK13) or as mature and active forms (KLK5). Activation of KLK6, KLK8, and KLK13 is performed in optimized buffers. The activation reaction is initiated by Lysyl‐Endopeptidase at 2.5 mU mL^−1 (Wako Bioproducts). The activation reaction is stopped by diluting the enzyme to 0.5 μg mL^−1 in assay buffer (50 mM Tris, 1 M Citrate, 0.05% w/v Brij‐35, pH 8) to obtain an active enzyme stock. KLK1 was purchased from R & D Systems as pro‐KLK1. Activation of KLK1 is performed in 50 mM Tris‐HCl, 10 mM CaCl2, 150 mM NaCl, 0.05% Brij‐35, pH 7.5. The activation reaction is initiated by bacterial thermolysin at 0.4 μg mL^−1 (Sigma‐Aldrich) and stopped by addition of 100 mM EDTA (Sigma‐Aldrich) to obtain an active KLK1 stock at the same concentration of 100 μg mL^−1. The activation reactions for KLK7 are initiated bacterial thermolysin at 0.4 μg mL^−1 (Sigma‐Aldrich) and stopped by addition of 100 mM EDTA (Sigma‐Aldrich) to obtain active stocks. All enzyme stocks were stored at −20 °C. H‐PFR‐AMC (KLK1), Boc‐VPR‐AMC (KLK5, KLK8, KLK13), Boc‐QAR‐AMC (KLK6, Plasmin), substrates were purchased from Bachem. MeO‐Suc‐RPY‐AMC (KLK7) substrate was purchased from AAT Bioquest. Plasmin (Sigma‐Aldrich) was purchased in mature and active form.
as §2, §3

[5] = biological target: T3, KLK4 (Homo sapiens, UniProt Q9Y5K2); assay: Selectivity screening, KLK4; assay type: biochemical; conditions: 50 μM compound, without Fe3+; read-out: percentage of inhibition KLK4
T3 construct: purchased R&D Systems

[6] = Calcein transchelation (calcein release) assay; assay type: physicochemical; conditions: calcein 100 nM, 4 h at room temperature; estimation, assay not fully quantitative; read-out: Apparent affinity (pseudo‐affinity constant Kd for Fe3+)
[7] = CCK8 cell viability assay, SH-SY5Y; assay type: cell-based; conditions: human, SH-SY5Y neuroblastoma cells, 25 and 50 μM, in absence or presence of iron (100 µM FAC), read-out: percentage of cell viability
Protocol: (§7) Human neuroblastoma cell line (SH-SY5Y) was purchased at American Type Culture Collection
(§8) Both cell lines were cultured in Dulbecco’s Modified Eagle Medium (DMEM)
(§9) containing 10% heat inactivated fetal bovine serum (FBS), 1% Penicillin/Streptomycin, 10 mM
(§10) Sodium Pyruvate, 2 mM L-Glutamine and 4,5 g/L D-glucose at 37°C, in a 5% humidified
(§11) incubator. Cells were cultivated until 80% confluence in flasks then were plated in 96-well
(§12) plates. For this experiment, SH-SY5Y were used at 10th passage and HMC3 at 13th. SH-SY5Y
(§13) cells were seeded at a density of 3x10^4 cells/well and HMC3 at a density of 10^4 cells/well. After
(§14) seeding, cells were left in complete medium overnight to adhere to the plates. After that, cells
(§15) were treated using inhibitors solubilized in DMSO at stock concentrations of 2,5 mM or 5 mM
(§16) with or without 10 mM iron. Iron solution was prepared by using FAC (Ferric Ammonium
(§17) Citrate, Sigma®) at stock concentration of 25 mM. After 24h of treatment, cell viability was
(§18) assessed with the CCK8 (Cell-Counting Kit 8) from TargetMol. After treatments, 10 µL of CCK8
(§19) reagent was diluted in 90 µL of complete medium and added to each well. After 3 hours at
(§20) 37°C, cell viability was assessed by absorbance measurement at 460 nm. Each viability assay
(§21) is the mean of two independent experiments performed in triplicates.
(§22) treated for 24h with the two selected concentrations of inhibitor (25 µM or 50 µM)
(§23) preincubated or not with 100 µM of FAC. The data are the mean of two independent
experiments performed in triplicates.

[8] = tested on: KLK's of the CNS triad (KLK1‐KLK6‐KLK8); assay: Reversibility analysis by dilution after preincubation; assay type: biochemical, human; conditions: 100-fold dilution after 15 min preincubation
Protocol: Aliquots of reaction mixtures (1 μL) were added to 99 μL of buffer containing the fluorogenic substrate (experimental conditions identical to the routine protocol used for a given enzyme). The mechanism of inhibition was determined by varying substrate and inhibitor concentrations, the type of inhibition and inhibition parameter (Ki or Ki′) are determined by Dixon's plots.

[9] = biological target: T4, KLK5 (Homo sapiens, UniProt Q9Y337); assay: Selectivity screening, KLK5; conditions: read-out: percentage of inhibition KLK5
T4 sequence (Q9Y337 67-293 limits assumed): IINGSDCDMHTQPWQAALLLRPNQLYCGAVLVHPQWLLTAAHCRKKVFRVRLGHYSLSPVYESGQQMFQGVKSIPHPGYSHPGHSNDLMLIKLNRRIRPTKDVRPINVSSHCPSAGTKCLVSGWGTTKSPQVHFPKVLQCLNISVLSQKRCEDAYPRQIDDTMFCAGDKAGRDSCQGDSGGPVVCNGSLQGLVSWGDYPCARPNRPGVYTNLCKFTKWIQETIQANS
Protocol: as §6, §2, §3

[10] = CCK8 cell viability assay, HMC3; assay type: cell-based; conditions: human, HMC3 microglial cells; HMC3, 24h, 25 and 50 μM, in absence or presence of iron (100 µM FAC); read-out: percentage of cell viability
Protocol: as §7, §8, §9, §10, §11, §12, §13, §14, §15, §16, §17, §18, §19, §20, §21, §22, §23
experiments performed in triplicates.

[11] = UV–vis spectroscopy of Fe3+ chelation and complex stability; assay type: physicochemical; conditions: activity buffer pH 7.4, 1:1 ratio, t = 0 to 240 min
Protocol: UV–vis analysis of DFX was first performed to monitor the chelation process and the stability of the Fe^3+ complex over time at a 1:1 ratio, typically representing the duration of inhibition assay (30 min to 4 h) (Figure S1, Supporting Information). In these conditions of pH (7.4) and ligand‐to‐iron ratio and according to Steinhauser et al. the main species in solution is assigned to [Fe(DFX)2]^3−.^[ [49] ^] Indeed, we aimed to explore not only the chelation properties but also the impact of the chelated species on enzyme inhibition.
2.c. Chelation properties, iron interactions, and selectivity profiles of selected compounds targeting KLK activity.
Figure S2: Stability of the chelated species as monitored by spectrophotometry. UV/VIS spectra of molecules alone using activity buffer at pH 7.4 (in orange at 500 µM) or in the presence of FeCl3 (ratio of 1:1) at different times (t = 0 in red, 30 min in black, 60 min in blue and 240 min in green). The purple trace corresponds to iron only at 500 µM All data are representative of 2 independent experiments performed in duplicate. […]

[12] = IC50 KLK1, 15 min preincubation at 37 °C, NI = not a hit (not above 50% inhibition at 50 μM)
[13] = IC50 KLK8, 15 min preincubation at 37 °C, NI = not a hit (not above 50% inhibition at 50 μM)

Chain of KLK1 (P06870 25-262): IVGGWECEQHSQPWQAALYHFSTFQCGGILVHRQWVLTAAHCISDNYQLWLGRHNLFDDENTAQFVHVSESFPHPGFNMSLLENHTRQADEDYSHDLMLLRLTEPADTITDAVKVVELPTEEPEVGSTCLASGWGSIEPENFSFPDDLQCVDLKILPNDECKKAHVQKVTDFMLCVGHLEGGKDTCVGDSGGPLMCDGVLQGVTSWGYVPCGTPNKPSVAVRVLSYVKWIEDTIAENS
T3 sequence (Q9Y5K2 31-254): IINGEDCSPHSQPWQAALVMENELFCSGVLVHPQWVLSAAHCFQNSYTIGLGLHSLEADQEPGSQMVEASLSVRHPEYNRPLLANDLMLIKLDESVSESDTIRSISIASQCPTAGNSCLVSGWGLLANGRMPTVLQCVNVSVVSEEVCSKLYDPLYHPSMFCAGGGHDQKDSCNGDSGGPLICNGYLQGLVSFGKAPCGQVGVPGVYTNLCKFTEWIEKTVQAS

O=C(O)c1ccc(-n2nc(-c3ccccc3O)nc2-c2ccc(O)cc2O)cc1 [compound 14]
IC50 [1]: > 50 µM | IC50 [2]: 38.3 ± 3.5 µM | IC50 [3, 12]: > 50 µM

COC(=O)c1ccc(-n2nc(-c3ccccc3O)nc2-c2ccccc2O)cc1 [3i]
IC50 [2]: > 50 µM

[Cl][Fe]([Cl])[Cl] [Fe3+]
IC50 ([1]; read-out: Pseudo-IC50 of Fe3+ on KLK6, Figure S4 B, curve fit y=(100*M0)/(M0+M2)): 1320 µM | IC50 ([2]; read-out: Pseudo-IC50 of Fe3+ on KLK8, Figure S4 C, curve fit y=(100*M0)/(M0+M2)): 1120 µM | IC50 ([3]; read-out: Pseudo-IC50 of Fe3+ on KLK1, Figure S4 A, curve fit y=(100*M0)/(M0+M2)): 989 µM

Oc1ccccc1-c1noc(-c2ccccc2O)n1 [compound 23]
IC50 [2, 13]: > 50 µM

N#Cc1ccc(-n2nc(-c3ccccc3O)nc2-c2ccccc2O)cc1 [3o]
IC50 [2]: > 50 µM

CCOC(=O)[C@H]1CC[C@H](n2nc(-c3ccccc3O)nc2-c2ccccc2O)CC1 [3fa]
IC50 [2]: > 50 µM

COc1ccc(-c2nc(-c3ccccc3O)n(-c3ccc(C(=O)O)cc3)n2)cc1 [compound 10]
IC50 [1]: > 50 µM | IC50 [2]: 33.4 ± 1.1 µM | IC50 [3, 12]: > 50 µM

O=C(c1ccccc1)n1nc(-c2ccccc2O)nc1-c1ccccc1O [3e]
inhibition at 50 µM ([1]; read-out: percentage of inhibition KLK6): 82.4% | inhibition at 50 µM [4]: 97.1% | inhibition at 50 µM [5]: 67.2% | Kd [6]: 0.41 ± 0.035 nM | viability at 24 h [7]: > 80% | IC50 [2]: > 50 µM | reversibility and time dependence of inhibition [8]: reversible and time‐independent inhibitors | inhibition at 50 µM [9]: 98.8% | Ki [3]: 24 µM | Type of inhibition KLK1 ([3]; Dixon plot, without Fe3+): competitive inhibitor | IC50 [3, 12]: 23.3 ± 0.9 µM | inhibition at 50 µM ([3]; read-out: percentage of inhibition KLK1): 82.1% | viability at 24 h [10]: > 80%

COc1ccc(-c2nc(-c3ccccc3O)nn2-c2ccc(C(=O)O)cc2)c(O)c1 [compound 13]
IC50 [1]: > 50 µM | Kd [6]: 0.077 ± 0.019 nM | UV–vis spectrum in the presence of FeCl3 (iron complex formation) [11]: a similar absorption band is observed | IC50 [2]: 24.8 ± 1.3 µM | IC50 [3, 12]: > 50 µM

Oc1ccccc1-c1nc(-c2ccccc2O)n(-c2ccc(Br)cc2)n1 [3p]
IC50 [2]: > 50 µM

O=C(O)c1ccc(-n2nc(-c3ccccc3)nc2-c2ccccc2O)cc1 [compound 9]
IC50 [1]: > 50 µM | UV–vis spectrum in the presence of FeCl3 (iron complex formation) [11]: no changes in the absorption spectra | IC50 [2]: 46.8 ± 0.2 µM | IC50 [3, 12]: > 50 µM

O=C(NC(Cc1ccccc1)C(=O)O)c1ccc(-n2nc(-c3ccccc3O)nc2-c2ccccc2O)cc1 (stereo not drawn) [3kb]
IC50 [2]: 24.8 ± 1.9 µM | IC50 [3, 12]: 16.4 ± 1 µM

CCOC(=O)Cn1nc(-c2ccccc2O)nc1-c1ccccc1O [3g]
IC50 [2]: > 50 µM

NS(=O)(=O)c1ccc(-n2nc(-c3ccccc3O)nc2-c2ccccc2O)cc1 [3s]
IC50 [2]: > 50 µM

Oc1ccccc1-c1nc(-c2ccccc2O)n(-c2ccccc2)n1 [3n]
Kd [6]: 0.081 ± 0.045 nM | IC50 [2, 13]: > 50 µM
